Columns and labels:
[1] = target: T1, PPARα (Homo sapiens, UniProt Q07869); experiment: PPARα radioligand binding assay (SPA, GST-PPARα-LBD)
T1 construct: PPARα (aa 167 to 469); made in house; host or cells: E. coli BL21 (pLysS)
T1 sequence (Q07869 167-468 limits assumed): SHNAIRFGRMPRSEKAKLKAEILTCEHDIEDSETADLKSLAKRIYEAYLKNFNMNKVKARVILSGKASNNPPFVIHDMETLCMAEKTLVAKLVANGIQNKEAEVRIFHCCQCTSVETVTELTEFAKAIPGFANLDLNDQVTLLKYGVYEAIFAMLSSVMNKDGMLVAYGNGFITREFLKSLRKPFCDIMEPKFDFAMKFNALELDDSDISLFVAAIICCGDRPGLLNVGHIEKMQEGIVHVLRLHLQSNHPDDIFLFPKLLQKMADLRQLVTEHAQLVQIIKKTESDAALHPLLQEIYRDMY
Source text: (§1) Background information on the performed assays can be found in: Nichols J S et al. “Development of a scintillation proximity assay for peroxisome proliferator-activated receptor gamma ligand binding domain”, (1998) Anal. Biochem. 257: 112-119.
(§2) Full-length cDNA clones for humans PPARδ and PPARα and mouse PPARγ were obtained by RT-PCR from human adipose and mouse liver cRNA, respectively, cloned into plasmid vectors and verified by DNA sequencing. Bacterial and mammalian expression vectors were constructed to produce glutathione-s-transferase (GST) and Gal4 DNA binding domain proteins fused to the ligand binding domains (LBD) of PPARδ (aa 139 to 442), PPARγ (aa 174 to 476) and PPARα (aa 167 to 469). To accomplish this, the portions of the cloned sequences encoding the LBDs were amplified from the full-length clones by PCR and then subcloned into the plasmid vectors. Final clones were verified by DNA sequence analysis.
(§3) Induction, expression, and purification of GST-LBD fusion proteins were performed in E. coli strain BL21 (pLysS) cells by standard methods (Ref: Current Protocols in Molecular Biology, Wiley Press, edited by Ausubel et al.).
(§4) PPARα receptor binding was assayed in TKE50 (50 mM Tris-HCl, pH 8, 50 mM KCl, 2 mM EDTA, 0.1 mg/ml fatty acid-free BSA and 10 mM DTT). For each 96 well reaction an 140 ng equivalent of GST-PPARα-LBD fusion protein was bound to 10 μg SPA beads (PharmaciaAmersham) in a final volume of 50 μl by shaking. The resulting slurry was incubated for 1 h at RT and centrifuged for 2 min at 1300 g. The supernatant containing unbound protein was removed and the semidry pellet containing the receptor-coated beads was resolved in 50 μl of TKE. […] All binding assays were performed in 96 well plates and the amount of bound ligand measured on a Packard TopCount using OptiPlates (Packard). Nonspecific binding was determined in the presence of 10^−4 M unlabelled compound. […]

[2] = target: T2, PPARγ (Mus musculus, UniProt P37238); experiment: PPARγ radioligand binding assay (SPA, GST-PPARγ-LBD)
T2 construct: PPARγ (aa 174 to 476); made in house; host or cells: E. coli BL21 (pLysS)
T2 sequence (P37238 204-505): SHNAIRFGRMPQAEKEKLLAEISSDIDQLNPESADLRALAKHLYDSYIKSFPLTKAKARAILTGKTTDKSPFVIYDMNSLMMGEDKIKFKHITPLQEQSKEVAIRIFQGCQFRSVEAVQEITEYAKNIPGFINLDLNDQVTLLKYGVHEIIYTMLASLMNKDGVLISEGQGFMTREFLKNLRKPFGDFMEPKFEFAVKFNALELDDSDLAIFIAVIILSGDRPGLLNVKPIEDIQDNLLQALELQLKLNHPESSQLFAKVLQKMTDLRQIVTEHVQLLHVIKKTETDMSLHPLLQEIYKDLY
Source text: as §1, §2, §3
as §4, with “PPARγ” for “PPARα”, “GST-PPARγ-LBD” for “GST-PPARα-LBD”, “ul” for “μl”

[3] = target: T3, PPARδ (Homo sapiens, UniProt Q03181); experiment: PPARδ radioligand binding assay (SPA, GST-PPARδ-LBD)
T3 construct: PPARδ (aa 139 to 442); made in house; host or cells: E. coli BL21 (pLysS)
T3 sequence (Q03181 139-441 limits assumed): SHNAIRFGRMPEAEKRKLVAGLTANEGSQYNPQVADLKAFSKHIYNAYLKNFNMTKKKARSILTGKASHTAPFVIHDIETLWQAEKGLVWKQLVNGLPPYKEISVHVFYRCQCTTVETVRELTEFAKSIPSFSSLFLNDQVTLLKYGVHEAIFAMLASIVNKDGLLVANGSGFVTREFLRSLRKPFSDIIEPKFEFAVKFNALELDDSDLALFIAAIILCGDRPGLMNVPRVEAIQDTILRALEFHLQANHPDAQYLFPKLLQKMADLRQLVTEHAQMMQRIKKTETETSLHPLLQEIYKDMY
Source text: as §1, §2, §3
PPARδ receptor binding was assayed in HNM10 (50 mM Hepes, pH 7.4, 10 mM NaCl, 5 mM MgCl2, 0.15 mg/ml fatty acid-free BSA and 15 mM DTT). For each 96 well reaction a 500 ng equivalent of GST-PPARδ-LBD fusion protein and radioligand, e.g. 20000 dpm {2-methyl-4-[4-methyl-2-(4-trifluoromethyl-phenyl)-thiazol-5-yl-ditritiomethylsulfanyl]-phenoxy}-acetic acid, was bound to 10 μg SPA beads (PharmaciaAmersham) in a final volume of 50 μl by shaking. The resulting slurry was incubated for 1 h at RT and centrifuged for 2 min at 1300 g. […] Radioligand was added and the reaction incubated at RT for 1 h and scintillation proximity counting performed in the presence of test compounds was determined. All binding assays were performed in 96 well plates and the amount of bound ligand was measured on a Packard TopCount using OptiPlates (Packard). […]

Row | SMILES | IC50 [1] | IC50 [2] | IC50 [3]
1 | Cc1cc(OC(C)C(=O)Nc2cccc(-c3ccc(C(F)(F)F)cc3)c2)ccc1OC(C)(C)C(=O)O (racemic) [Example 09, [rac]-2-Methyl-2-{2-methyl-4-[1-(4′-trifluoromethyl-biphenyl-3-ylcarbamoyl)-ethoxy)-phenoxy}-propionic acid] | 420 nM | > 10000 nM | 580 nM
2 | CC(C)(Oc1ccc(CCCC(=O)Nc2cnc(-c3ccc(C(F)(F)F)cc3)nc2C2CC2)cc1)C(=O)O [Example 16, 2-(4-{3-[4-Cyclopropyl-2-(4-trifluoromethyl-phenyl)-pyrimidin-5-ylcarbamoyl]-propyl}-phenoxy)-2-methyl-propionic acid] | 8 nM | > 10000 nM | > 10000 nM
3 | Cc1cc(OCCNC(=O)c2cnc(-c3ccc(C(F)(F)F)cc3)nc2C2CC2)ccc1OC(C)(C)C(=O)O [Example 20, 2-[4-(2-{[4-Cyclopropyl-2-(4-trifluoromethyl-phenyl)-pyrimidine-5-carbonyl]-amino}-ethoxy)-2-methyl-phenoxy]-2-methyl-propionic acid] | 24 nM | 1080 nM | 940 nM
